Measured values from ChEMBL document CHEMBL6153097, “Design, synthesis, and biological evaluation of Flavokavain B derivatives as potent TRF2 inhibitors for the treatment of Osteosarcoma” (Eur J Med Chem, 2025).
Active and inactive are the calls of the source. No cut-off for these calls is given here.

What was measured:
MG-63 [1] = experiment: (§1) Inhibition of TRF2 expression in human MG-63 cells at 2 uM measured after 48 hrs by Western blot analysis relative to control; type: functional
[2] = (§2) Inhibition of TRF2 expression in human U2OS cells at 2 uM measured after 48 hrs by Western blot analysis relative to control; type: functional
[3] = as §1; type: functional
U2OS [4] = experiment: as §2; type: functional
MG-63 [5] = experiment: Antiproliferative activity against human MG-63 cells assessed as reduction in cell viability incubated for 48 hrs by MTT assay; type: functional, cell-based; conditions: MG-63, 48 h
U2OS [6] = experiment: Antiproliferative activity against human U2OS cells assessed as reduction in cell viability incubated for 48 hrs by MTT assay; type: functional, cell-based
[7] = Cytotoxicity against […] MLO-Y4 cells assessed as cell viability incubated for 48 hrs by MTT assay; type: toxicity, cell-based; conditions: mouse

| SMILES | inhibition (MG-63 [1]) | inhibition at 2 µM [2] | inhibition at 2 µM [3] | inhibition (U2OS [4]) | IC50 (MG-63 [5]) | IC50 (U2OS [6]) | IC50 at 48 h [7] |
| --- | --- | --- | --- | --- | --- | --- | --- |
| CCOC(=O)COc1ccc(C(=O)/C=C/c2cccc(Br)c2)c(OC)c1 | inactive | 37.3% |  |  |  |  |  |
| COc1cc(N2CCOCC2)ccc1C(=O)/C=C/c1cccc(Br)c1 |  | 25.1% | 22.7% |  |  |  |  |
| COc1cc(O)c(C(=O)CCc2cccc(Br)c2)c(OC)c1 |  | 34.5% | 32.8% |  |  |  |  |
| COc1cc(OC)c(C(=O)/C=C/c2cc(Br)cc(Br)c2)c(OC)c1 |  | 31.1% | 31.4% |  |  |  |  |
| COc1cc(O)ccc1C(=O)/C=C/c1cc(Br)cc(Br)c1 |  | 42.1% | 22.2% |  |  |  |  |
| COc1cc(O)ccc1C(=O)/C=C/c1cccc(Br)c1 | inactive | 9.3% |  |  |  |  |  |
| CCOc1ccc(C(=O)/C=C/c2cccc(Br)c2)c(OCC)c1 |  |  | 36.1% | inactive |  |  |  |
| CCOC(=O)COc1ccc(C(=O)/C=C/c2cc(Br)cc(Br)c2)c(OC)c1 | inactive | 39.2% |  |  |  |  |  |
| COc1cc(OC2CCCOC2)ccc1C(=O)/C=C/c1cccc(Br)c1 (stereo not given) |  | 31.8% | 23.7% |  |  |  |  |
| COc1ccc(CNC(=O)Nc2ncc([N+](=O)[O-])s2)cc1 |  | 9.2% | 14.6% |  | 37.8 µM | 32.8 µM | > 100 µM |
| COc1cc(N2CCOCC2)ccc1C(=O)/C=C/c1cc(Br)cc(Br)c1 |  | 33.2% | 40.2% |  |  |  |  |
| COc1cc(OC)c2c(=O)cc(-c3cccc(Br)c3)oc2c1 |  | 33.7% | 23.8% |  |  |  |  |
| CCOc1ccc(C(=O)/C=C/c2cc(Br)cc(Br)c2)c(OCC)c1 |  |  | 17.1% | inactive |  |  |  |
| COc1ccc(C(=O)/C=C/c2cccc(Br)c2)c(OC)c1 |  | 45.4% | 29.6% |  |  |  |  |
| COc1ccc(C(=O)/C=C/c2cc(Br)cc(Br)c2)c(OC)c1 |  | 22.5% | 52.5% |  |  |  |  |
| COc1cc(OC2CCCOC2)ccc1C(=O)/C=C/c1cc(Br)cc(Br)c1 (stereo not given) |  |  | 32.2% | inactive |  |  |  |
| COc1cc(O)c(C(=O)/C=C/c2cc(Cl)ccn2)c(OC)c1 |  | 32.9% | 41.3% |  |  |  |  |
| COc1cc(O)c(C(=O)/C=C/c2cc(Br)cc(Br)c2)c(OC)c1 |  | 13.8% | 22.1% |  |  |  |  |
| COc1ccc(C(=O)/C=C/c2cccc(Br)c2)c(O)c1 |  | 51.7% | 44.8% |  | 7.11 µM | 7.87 µM | 7.93 µM |
| COc1cc(OCC(=O)O)ccc1C(=O)/C=C/c1cccc(Br)c1 | inactive | 52.5% |  |  |  |  |  |
| O=C(/C=C/c1cc(Br)cc(Br)c1)c1ccc2c(c1)OCCO2 |  | 36.7% | 37.6% |  |  |  |  |
| COc1cc(O)c(C(=O)/C=C/c2cccc(Br)c2)c(OC)c1 |  | 18.3% | 37.8% |  | 4.34 µM | 8.75 µM | 19.6 µM |
| COc1cc(OCC(=O)O)ccc1C(=O)/C=C/c1cc(Br)cc(Br)c1 |  | 52% | 34.8% |  | 22.8 µM | 32.9 µM | > 100 µM |
| COc1cccc(O)c1C(=O)/C=C/c1cccc(Br)c1 |  | 35% | 40.6% |  |  |  |  |
| O=C(/C=C/c1cccc(Br)c1)c1ccc2c(c1)OCCO2 |  | 39.5% | 48.5% |  | 6.81 µM | 13.2 µM | 76.5 µM |
